The text below walks through data of PubChem BioAssay (NCI).

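Tested at 5 concentrations; 48 h exposure; 96-well plates; endpoints linearly interpolated, else capped at highest concentration. At the GI50, growth is halved. Definition used: TGI = concentration required for complete inhibition of growth.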

Test systems include RPMI-8226 leukemia; A549 NSCLC; SF-268 CNS; 786-0 renal; SNB-19 CNS; PC-3 prostate; OVCAR-5 ovarian; SK-MEL-28 melanoma; HT29 colon; K-562 leukemia.
What all share (assay): DTP human tumour cell line panel, 48 h

Broadly, the GI50 is the concentration that inhibits growth by half. Broadly, the TGI is the concentration at which net growth stops. As to `COc1ccc(NC(=O)COCCOCCNC[C@@H]2C(=O)O[C@H]3[C@H]2CC/C(COC(=O)OC/C2=C/CC[C@@]4(C)O[C@H]4[C@H]4OC(=O)[C@@H](CN(C)C)[C@@H]4CC2)=C\CC[C@@]2(C)O[C@@H]32)c(O)c1C(N)=O`, the GI50 in the assay on RPMI-8226 leukemia was 1.42 µM; in the assay on A549 NSCLC, 31.8 µM; with SF-268 CNS it was 8.7 µM; in the assay with 786-0 renal it was 6.17 µM; in the assay on SNB-19 CNS, 14.3 µM; with PC-3 prostate, 11.1 µM. In addition, the figures for the GI50 in the assay on OVCAR-5 ovarian, in the assay on SK-MEL-28 melanoma and in the assay with HT29 colon were 8.9 µM, 2.79 µM and 1.71 µM, respectively. The TGI with RPMI-8226 leukemia is 4.21 µM; in the assay with A549 NSCLC it was over 50 µM; with SF-268 CNS, 18.7 µM; in the assay with 786-0 renal it was 13.7 µM; in the assay with SNB-19 CNS, over 50 µM; with PC-3 prostate, 26.9 µM. Besides, the TGI amounted to 17.4 µM with OVCAR-5 ovarian, 9.57 µM in the assay with SK-MEL-28 melanoma and 5.77 µM with HT29 colon.
In the case of `COc1cc(-n2cc(-c3ccc(Cl)cc3)nc2SCc2cccc(C#N)c2)cc(OC)c1OC`, the GI50 in the assay on RPMI-8226 leukemia is over 100 µM; with A549 NSCLC, over 100 µM; in the assay on SF-268 CNS, 39.4 µM; with 786-0 renal, 25.1 µM; in the assay with SNB-19 CNS, 48 µM; in the assay on PC-3 prostate it was 30.4 µM. Also, the GI50 with OVCAR-5 ovarian is over 100 µM; with SK-MEL-28 melanoma, 31.2 µM; in the assay with HT29 colon it was 54.1 µM; with K-562 leukemia, over 100 µM. The TGI in the assay with RPMI-8226 leukemia was over 100 µM; in the assay with A549 NSCLC it was over 100 µM; in the assay on SF-268 CNS it was over 100 µM; in the assay on 786-0 renal it was 92.5 µM; in the assay on SNB-19 CNS it was over 100 µM; in the assay on PC-3 prostate, over 100 µM. Besides, the TGI in the assay on OVCAR-5 ovarian, in the assay on SK-MEL-28 melanoma, with HT29 colon and in the assay with K-562 leukemia was over 100 µM in each case.
In the case of `Cc1cc(Cc2cc(C)cc(C(C)(C)C)c2O)c(O)c(Cc2cc(C)cc(C(C)(C)C)c2O)c1`, the concentration for total growth inhibition (TGI) is over 20.4 µM with RPMI-8226 leukemia; 11.3 µM in the assay with A549 NSCLC; 9.92 µM in the assay with SF-268 CNS; 9.09 µM in the assay on 786-0 renal; 15.7 µM in the assay with SNB-19 CNS; 9.12 µM with PC-3 prostate. Besides, the TGI with OVCAR-5 ovarian came out at 14.2 µM; with SK-MEL-28 melanoma it was 16.7 µM; in the assay on HT29 colon, 7.78 µM; with K-562 leukemia, 6.33 µM.
Turning to `C=C1C(=O)O[C@H]2[C@H]1CCC(/C=N/c1ncc(Br)cc1N)=C\CC[C@@]1(C)O[C@@H]21`, the GI50 in the assay with RPMI-8226 leukemia was 1.13 µM; in the assay on A549 NSCLC it was 10.9 µM; in the assay on SF-268 CNS it was 2.86 µM; in the assay with 786-0 renal it was 1.72 µM; in the assay on SNB-19 CNS, 10.1 µM; in the assay with PC-3 prostate it was 2.26 µM. In addition, the GI50 in the assay with OVCAR-5 ovarian is 3.2 µM; with SK-MEL-28 melanoma it was 2.37 µM; in the assay with HT29 colon, 1.93 µM; in the assay with K-562 leukemia, 2.11 µM. The TGI in the assay on RPMI-8226 leukemia is 5.01 µM; in the assay on A549 NSCLC, 25.3 µM; in the assay with SF-268 CNS, 11.1 µM; with 786-0 renal, 3.52 µM; in the assay on SNB-19 CNS it was 24.7 µM; in the assay with PC-3 prostate, 11.1 µM. For the same compound, the TGI was 11.5 µM in the assay on OVCAR-5 ovarian, 6.07 µM with SK-MEL-28 melanoma, 5.52 µM with HT29 colon and over 100 µM in the assay on K-562 leukemia.
In the case of `CC(NCCC(=O)N(CCC(=O)N(CCC(=O)N(CCC(=O)N(CCC(=O)N(CCC(=O)N(CCC(=O)N(CCC(=O)N(CCC(=O)N(CCC(=O)O)[C@H](C)c1ccccc1)[C@H](C)c1ccccc1)[C@H](C)c1ccccc1)[C@H](C)c1ccccc1)[C@H](C)c1ccccc1)[C@H](C)c1ccccc1)[C@H](C)c1ccccc1)[C@H](C)c1ccccc1)[C@H](C)c1ccccc1)c1ccccc1` (stereo partly drawn), the GI50 in the assay on RPMI-8226 leukemia was 1.1 µM; in the assay on A549 NSCLC, 3.56 µM; in the assay on SF-268 CNS, 2.45 µM; in the assay on 786-0 renal it was 3.46 µM; in the assay on SNB-19 CNS, over 19.1 µM; in the assay on PC-3 prostate, 2.66 µM. In addition, the GI50 was over 18.8 µM in the assay on OVCAR-5 ovarian, 1.5 µM in the assay on SK-MEL-28 melanoma, 1.6 µM with HT29 colon and 2.29 µM in the assay on K-562 leukemia. Besides, the TGI is 4.08 µM in the assay on RPMI-8226 leukemia; over 75 µM in the assay with A549 NSCLC; over 38.7 µM with SF-268 CNS; over 75 µM in the assay on 786-0 renal; over 75 µM with SNB-19 CNS; over 75 µM with PC-3 prostate. Moreover, the TGI is over 75 µM with OVCAR-5 ovarian, 3.63 µM in the assay on SK-MEL-28 melanoma, 5.37 µM with HT29 colon and over 75 µM with K-562 leukemia.
On to `O=C(O)c1cc(-c2ccncc2)nc2ccccc12`, for which the total growth inhibition concentration (TGI) in the assay with RPMI-8226 leukemia, in the assay on A549 NSCLC, with SF-268 CNS, in the assay with 786-0 renal, with SNB-19 CNS and in the assay on PC-3 prostate was over 100 µM throughout. Also, the TGI with OVCAR-5 ovarian, in the assay with SK-MEL-28 melanoma, with HT29 colon and in the assay with K-562 leukemia was over 100 µM throughout.
`Oc1ccccc1C=Nc1nc(SCc2ccccc2)nc2[nH]ncc12`: the GI50 is 30.8 µM in the assay with RPMI-8226 leukemia; 65.2 µM in the assay with A549 NSCLC; 28.2 µM in the assay on SF-268 CNS; 89.4 µM in the assay with 786-0 renal; 49.5 µM with SNB-19 CNS; 37.2 µM with PC-3 prostate. Also, the GI50 with OVCAR-5 ovarian is over 100 µM; in the assay on SK-MEL-28 melanoma, 82.8 µM; in the assay on HT29 colon, 54.6 µM; with K-562 leukemia it was 35.2 µM. Also, the TGI with RPMI-8226 leukemia, in the assay with A549 NSCLC, in the assay with SF-268 CNS, in the assay with 786-0 renal, with SNB-19 CNS and in the assay on PC-3 prostate was over 100 µM each time. Further, the TGI in the assay on OVCAR-5 ovarian, in the assay on SK-MEL-28 melanoma, in the assay on HT29 colon and with K-562 leukemia was over 100 µM in each case.
Take `CC(=O)OCC(=O)[C@@]12OC(C)(C)O[C@@H]1C[C@H]1[C@@H]3CC=C4C[C@@H](O)CC[C@]4(C)[C@H]3CC[C@@]12C`: the TGI with RPMI-8226 leukemia, in the assay on A549 NSCLC, in the assay on SF-268 CNS, in the assay with 786-0 renal, with SNB-19 CNS and in the assay on PC-3 prostate was over 100 µM in each case. The TGI with OVCAR-5 ovarian, with SK-MEL-28 melanoma, in the assay with HT29 colon and in the assay on K-562 leukemia was over 100 µM in each case.
